Measured values taken from patent US11578074B2, “Nitrogenous heterocyclic compound, preparation method, intermediate, composition, and application” (SHANGHAI PHARMACEUTICALS HOLDING CO., LTD., priority 2017, dated 2023).

What was measured:
[1] = test system: N87 (human gastric cancer cell NCI-N87); test: In vitro proliferation inhibition assay of cell lines (CellTiter-Glo), N87; type: cell-based; details: N87 cells, 72 hours
Method: (§1) In Vitro Proliferation Inhibition Assay of Cell Lines
(§2) 1. Cell culture and inoculation: on the first day of the experiment, normal cultured cells were taken, and in the exponential growth state, after digestion and dispersion, the cell density was then adjusted to 8.8×10^4 cells/mL for BT-474, and 6.6×10^4 cells/mL for N87, and 90 μL of which were inoculated to each well of a 96-well cell culture plate; after the inoculation was completed, the microplate was cultured under the conditions of 37° C. and 5% CO2 overnight. 2. Dosing to the cells: on the second day of the experiment, the microplate was taken out from the incubator, and 10 μL of 10× compound was added to each well of the microplate, setting 2 duplicate wells for each drug concentration and 9 dosing concentrations for each compound. According to different cell lines, the initial concentration of each compound was different. Upon completion of addition, the microplate was placed under the conditions of 37° C. and 5% CO2 for 72 hours. 3. Data acquisition: the microplate was taken out from the incubator and was allowed to equilibrate at room temperature for 30 minutes. 100 μL of CellTiter-Glo® Luminescent Cell Viability Assay reaction solution which had been equilibrated at room temperature was added to each well, and the reaction solution was shaken at 1300 rpm for 2 minutes at room temperature. After that, the microplate was placed in HERAEUS Multifuge X1R centrifuge, centrifuged at 2000 rpm for 1 minute, and allowed to equilibrate at room temperature for 10 minutes. The fluorescence signal value was measured on EnVision™.

EGFR kinase = EGFR kinase (Homo sapiens, UniProt P00533); test: EGFR/ErbB2 enzymatic experiment (HTRF kinEASE-TK), EGFR; type: biochemical; details: EGFR kinase 0.06 units/μL, ATP 1.65 μM; read-out: Kinase IC50 (nM) in vitro EGFR
EGFR kinase, sequence (P00533 25-1210): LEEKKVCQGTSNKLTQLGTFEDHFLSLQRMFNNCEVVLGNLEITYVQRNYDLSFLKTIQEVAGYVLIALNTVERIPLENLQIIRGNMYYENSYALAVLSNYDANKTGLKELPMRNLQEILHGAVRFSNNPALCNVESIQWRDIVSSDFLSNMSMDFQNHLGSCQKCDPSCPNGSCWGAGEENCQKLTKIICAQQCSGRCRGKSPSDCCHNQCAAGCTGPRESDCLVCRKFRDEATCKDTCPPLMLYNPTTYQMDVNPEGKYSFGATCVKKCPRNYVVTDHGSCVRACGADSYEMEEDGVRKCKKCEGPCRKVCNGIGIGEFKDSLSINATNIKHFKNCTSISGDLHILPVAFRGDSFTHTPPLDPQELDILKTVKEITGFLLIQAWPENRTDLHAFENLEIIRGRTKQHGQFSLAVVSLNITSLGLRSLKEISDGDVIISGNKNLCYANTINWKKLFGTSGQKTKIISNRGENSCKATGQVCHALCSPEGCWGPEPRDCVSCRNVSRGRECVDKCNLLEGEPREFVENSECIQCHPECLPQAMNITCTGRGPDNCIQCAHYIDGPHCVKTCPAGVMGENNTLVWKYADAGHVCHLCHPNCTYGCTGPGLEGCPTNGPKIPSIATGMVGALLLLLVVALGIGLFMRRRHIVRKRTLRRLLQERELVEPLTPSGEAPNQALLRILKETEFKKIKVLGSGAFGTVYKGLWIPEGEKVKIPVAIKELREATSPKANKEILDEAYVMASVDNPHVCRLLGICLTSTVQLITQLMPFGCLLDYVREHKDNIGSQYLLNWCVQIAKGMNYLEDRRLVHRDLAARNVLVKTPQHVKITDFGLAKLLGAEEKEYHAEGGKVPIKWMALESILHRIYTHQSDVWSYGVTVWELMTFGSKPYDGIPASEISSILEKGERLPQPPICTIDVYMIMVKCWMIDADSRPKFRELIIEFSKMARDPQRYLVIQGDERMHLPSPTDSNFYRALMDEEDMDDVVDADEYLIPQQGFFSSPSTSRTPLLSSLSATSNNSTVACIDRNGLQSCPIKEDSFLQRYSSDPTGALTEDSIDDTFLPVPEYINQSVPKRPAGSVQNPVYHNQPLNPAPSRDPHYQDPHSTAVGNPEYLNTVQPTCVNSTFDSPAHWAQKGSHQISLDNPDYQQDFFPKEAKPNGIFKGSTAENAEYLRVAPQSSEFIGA
Method: (§3) EGFR/ErbB2 Enzymatic Experiment
(§4) Firstly, 1× reaction buffer required for the kinase was prepared, then 5× Enzymatic buffer (HEPES 20 mM pH 7.0, NaN3 0.1%, BSA 0.05%, sodium orthovanadate 0.5 mM) was diluted in HTRF kinEASE-TK kit by 1 time with deionized water, and 50 nM Supplement Enzymatic buffer (SEB REAGENT), 1 mM MnCl2, 5 mM MfCl2, 1 mM DTT were added. Secondly, 5× compound was prepared, and 10 mM test compound storage solution was diluted in multiple steps with DMSO in a 96-well compound plate to prepare 100× compound as an initial concentration, which was then used as the first concentration to carry out a 3-fold gradient dilution with DMSO to obtain a total of 10 concentrations. Then 1 μL of gradient diluent was added to 19 μL of 1× reaction buffer to prepare 5× compound for later use. Then 2 μL of 5× compound was transferred from the 96-well plate into a 384-well plate. To the compound-free control wells was added 2 μL of the following liquid: 19 μL of 1× reaction buffer with addition of 1 μL of DMSO. To the blank control well was added 2 μL of 250 mM EDTA. […] In the fourth step of reaction termination, HTRF Detection buffer was used to prepare a mixture of 2×TK Antibody-EU (K) and Sa-XL665, and the amount of TK Antibody-EU (K) was 5 μL per well. After the enzyme reaction was carried out for 30 minutes, 10 μL of the above liquid was added to a 384-well plate, and the reaction was carried out at room temperature for 1 hour. […] RFU665 nM and RFU620 nM were measured, and RFU665 nM/RFU620 nM×10000 was used as final data for analysis.

[2] = test system: BT-474 (human breast cancer cell); test: In vitro proliferation inhibition assay of cell lines (CellTiter-Glo), BT-474; type: cell-based; details: BT-474 cells, 72 hours
Method: as §1
as §2, with “Cell culture and inoculation: on the first day of the experiment, normal cultured cells were taken, and in the exponential growth state, after digestion and dispersion, the cell density was then adjusted to 8.8×10^4 cells/mL for BT-474, and 6.6×10^4 cells/mL for N87, and 90 μL of which were inoculated to each well of a 96-well cell culture plate; after the inoculation was completed, the microplate was cultured under the conditions of 37° C. and 5% CO2 overnight.” left out

ErbB2 kinase = target: T1, ErbB2 kinase (Homo sapiens, UniProt P04626); test: EGFR/ErbB2 enzymatic experiment (HTRF kinEASE-TK), ErbB2; type: biochemical; details: ErbB2 kinase 0.06 ng/μL, ATP 4 μM; read-out: Kinase IC50 (nM) in vitro ErbB2
T1 construct: The final concentration of ErbB2 kinase was 0.06 ng/μL
T1 sequence (P04626 23-1255): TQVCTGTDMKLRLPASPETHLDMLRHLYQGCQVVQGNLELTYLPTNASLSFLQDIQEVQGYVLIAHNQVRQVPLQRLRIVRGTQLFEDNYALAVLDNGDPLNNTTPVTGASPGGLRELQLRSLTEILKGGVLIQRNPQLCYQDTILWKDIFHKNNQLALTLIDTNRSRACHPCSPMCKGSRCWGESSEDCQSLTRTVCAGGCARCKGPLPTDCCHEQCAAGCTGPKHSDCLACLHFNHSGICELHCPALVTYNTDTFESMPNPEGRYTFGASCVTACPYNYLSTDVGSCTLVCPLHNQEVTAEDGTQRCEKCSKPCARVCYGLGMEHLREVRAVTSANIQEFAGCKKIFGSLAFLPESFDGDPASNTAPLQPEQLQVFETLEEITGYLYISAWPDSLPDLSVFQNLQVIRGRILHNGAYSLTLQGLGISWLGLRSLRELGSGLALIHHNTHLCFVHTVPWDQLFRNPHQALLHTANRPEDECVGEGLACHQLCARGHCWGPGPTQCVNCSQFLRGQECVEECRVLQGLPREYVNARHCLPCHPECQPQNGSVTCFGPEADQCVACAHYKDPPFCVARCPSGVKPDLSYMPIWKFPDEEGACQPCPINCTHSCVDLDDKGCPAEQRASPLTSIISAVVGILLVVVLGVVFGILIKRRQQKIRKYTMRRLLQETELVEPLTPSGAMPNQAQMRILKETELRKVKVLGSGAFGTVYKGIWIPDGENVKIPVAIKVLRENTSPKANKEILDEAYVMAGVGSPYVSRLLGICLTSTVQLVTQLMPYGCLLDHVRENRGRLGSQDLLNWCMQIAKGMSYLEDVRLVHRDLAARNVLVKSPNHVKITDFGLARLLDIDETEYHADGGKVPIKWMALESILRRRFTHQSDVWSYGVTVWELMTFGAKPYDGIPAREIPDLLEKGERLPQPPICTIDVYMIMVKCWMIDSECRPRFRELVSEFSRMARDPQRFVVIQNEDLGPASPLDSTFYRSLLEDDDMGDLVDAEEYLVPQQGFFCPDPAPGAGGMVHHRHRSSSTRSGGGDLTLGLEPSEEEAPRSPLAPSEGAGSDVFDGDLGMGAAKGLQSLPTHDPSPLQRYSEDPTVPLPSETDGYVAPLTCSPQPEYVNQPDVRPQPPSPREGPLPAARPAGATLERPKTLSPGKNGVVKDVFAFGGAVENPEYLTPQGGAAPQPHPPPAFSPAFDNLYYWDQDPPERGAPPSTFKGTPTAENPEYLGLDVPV
Method: as §3, §4

Structure (SMILES)	IC50 [1]	IC50 (EGFR kinase)	IC50 [2]	IC50 (ErbB2 kinase)
Cc1cc(Nc2ncnc3ccc(NC(=O)/C=C/[C@H]4CCCN4C)cc23)ccc1Oc1cnc2ccnn2c1	1.6 nM	0.757 nM	2.65 nM	1.09 nM
Cc1cc(Nc2ncnc3ccc(NC(=O)/C=C/[C@H]4CCCN4C)cc23)ccc1Oc1ccc2nc[nH]c2c1	22.6 nM	1.5 nM	15.4 nM	0.689 nM
Cc1cc(Nc2ncnc3ccc(NC(=O)C=CC4COCCN4)cc23)ccc1Oc1cc2nncn2cn1 (stereo in doubt) [Final product of Embodiment 28, (E)-N-(4-((4-([1,2,4]triazolo[4,3-c]pyrimidin-7-yloxy)-3-methylphenyl)amino)quinazolin-6-yl)-3-(morpholin-3-yl)acrylamide]	33.4 nM	5.29 nM	11 nM	3.25 nM
Cc1cc(Nc2ncnc3ccc(NC(=O)/C=C/[C@@H]4CCCN4C)cc23)ccc1Oc1cc2nncn2cn1 [Final product of Embodiment 1-97, (S,E)-N-(4-((4-([1,2,4]triazolo[4,3-c]pyrimidin-7-yloxy)-3-methylphenyl)amino)quinazolin-6-yl)-3-(1-methylpyrrolidin-2-yl)acrylamide]	10 nM	–	–	–
C=CC(=O)N1CCC[C@@H](Nc2ccc3ncnc(Nc4ccc(Oc5cc6nncn6cn5)c(C)c4)c3c2)C1 [Final product of Embodiment 7, (R)-1-(3-((4-((4-([1,2,4]triazolo[4,3-c]pyrimidin-7-yloxy)-3-methylphenyl)amino)quinazolin-6-yl)amino)piperidin-1-yl)propan-2-en-1-one]	65.5 nM	7.09 nM	49.5 nM	0.851 nM
C=CC(=O)Nc1ccc2ncc(C#N)c(Nc3ccc(Oc4cc5nncn5cn4)c(C)c3)c2c1 [Final product of Embodiment 9, N-(4-((4-([1,2,4]triazolo[4,3-c]pyrimidin-7-yloxy)-3-methylphenyl)amino)-3-cyanoquinolin-6-yl)acrylamide]	18.8 nM	13.8 nM	9.62 nM	7.98 nM
Cc1cc(Nc2ncnc3ccc(/C=C/C(=O)N(C)C)cc23)ccc1Oc1cc2nncn2cn1 [Final product of Embodiment 15, (E)-3-(4-((4-([1,2,4]triazolo[4,3-c]pyrimidin-7-yloxy)-3-methylphenyl)amino)quinazolin-6-yl)-N,N-dimethylacrylamide]	301 nM	156 nM	162 nM	17.5 nM
Cc1cc(Nc2ncnc3ccc(/C=C/C(=O)NC4CC4)cc23)ccc1Oc1cc2nncn2cn1 [Final product of Embodiment 16, (E)-3-(4-((4-([1,2,4]triazolo[4,3-c]pyrimidin-7-yloxy)-3-methylphenyl)amino)quinazolin-6-yl)-N-cyclopropylacrylamide]	692 nM	33.7 nM	256 nM	22 nM
Cc1cc(Nc2c(C#N)cnc3ccc(NC(=O)/C=C/[C@H]4CCCN4)cc23)ccc1Oc1cc2nncn2cn1 [Final product of Embodiment 21, (R,E)-N-(4-((4-([1,2,4]triazolo[4,3-c]pyrimidin-7-yloxy)-3-methylphenyl)amino)-3-cyanoquinolin-6-yl)-3-(pyrrolidin-2-yl)acrylamide]	94 nM	3.46 nM	54.6 nM	8.25 nM
Cc1cc(Nc2ncnc3ccc(NC(=O)/C=C/[C@H]4CCCN4C)cc23)ccc1Oc1ccn2cnnc2c1 [Final product of Embodiment 25]	68.2 nM	23.4 nM	50.7 nM	8.47 nM
CCOc1cc2ncc(C#N)c(Nc3ccc(OCc4ccccn4)c(Cl)c3)c2cc1NC(=O)/C=C/[C@H]1CCCN1C [drawing 239, reference compound]	1.2 nM	–	2.56 nM	1.67 nM
CCOc1cc2ncc(C#N)c(Nc3ccc(OCc4ccccn4)c(Cl)c3)c2cc1NC(=O)/C=C/CN(C)C [drawing 240, reference compound]	0.82 nM	–	–	–
